What was measured:
[1] = target: human serum albumin (HSA), site II (Homo sapiens, UniProt P02768); test: HSA dansylglycine (DG) site marker displacement; conditions: cHSA = cDG = 1 μM; λEX = 335 nm (DG); pH 7.4 (PBS’); […]; 24 h
Experimental: (§4) Next, spectrofluorometric measurements were also performed to gain insight into the binding interactions that may occur in the hydrophobic binding sites of HSA. Tryptophan (Trp214) quenching experiments were conducted for the complexes (1–4) (for complex (3) see Figure S31) and their ligands). […] To monitor the binding at site II, site marker displacement experiments were performed using dansylglycine (DG).
(§5) Fluorescence measurements were carried out on a Fluoromax (Horiba Jobin Yvon, Longjumeau, France) spectrofluorometer using a 1 cm × 1 cm quartz cuvette. […] Excitation wavelengths were 295 nm for Trp-214 quenching and 340 nm for the DG displacement studies. The calculated conditional stability constants for HSA–complex species were obtained using the computer program HypSpec.[64] Calculations always were based on data obtained from at least two independent measurements.

[2] = pKa of in situ prepared complexes by pH-potentiometry; assay type: physicochemical; conditions: I = 0.20 M KNO3
Excerpt: The results, shown in Table 2, indicate good agreement between the data obtained by the different methods. It should be noted that these processes show overlap in all cases, and therefore, the assignment of the pKa values to the given moieties cannot be made reliably. However, by comparing the spectral changes with those observed for HQ and other simple derivatives,[25] it can be concluded that the lower pKa likely belongs to the deprotonation of the aqua coligand.
The pH-potentiometric measurements were carried out at 25.0 ± 0.1 °C in water in the pH range between 2.0 and 11.5 and at a constant ionic strength of 0.20 M KNO3. The titrations were performed in a carbonate-free KOH solution (0.20 M). The exact concentrations of the HNO3 and KOH solutions were determined by pH-potentiometric titrations. An Orion 710A pH-meter equipped with a Metrohm combined electrode (type 6.0234.100) and a Metrohm 665 Dosimat buret were used for this purpose. […] The average water ionization constant, pKw, was determined as 13.76 ± 0.01, which is in good agreement with the literature data.[67] The initial volume of the samples was 10.0 mL. […] Samples were degassed by bubbling purified argon through them for about 10 min prior to the measurements, and the inert gas was also passed over the solutions during the titrations. The computer program Hyperquad2013[64] was utilized to establish the stoichiometry of the species and to calculate the equilibrium constants.

[3] = n-octanol/water distribution coefficient (shake-flask); assay type: physicochemical; conditions: pH 7.4, […]
Experimental: The exchange of the coligand (H2O/Cl^–) changes the overall charge of the complex, thus affecting lipophilicity. […] The traditional shake-flask method was used to obtain distribution coefficients of the ligands as well as of the complexes in n-octanol/buffered aqueous solution (20 mM phosphate, pH = 7.4) at different chloride ion concentrations (4, 24, and 100 mM) using UV–vis spectrophotometry (Agilent Cary 8454 diode array spectrophotometer, Santa Clara, CA, USA) for the analysis. The compounds were dissolved in buffered aqueous solutions previously saturated with n-octanol. Then the aqueous and n-octanol phases were gently mixed in different volume ratios (using 1:60 for the ligands, 1:1 for the RhCp* and 1:2 for the RuCym complexes ratios of n-octanol to buffered aqueous solution volume) for 4 h, followed by phase separation. Then the UV–vis spectrum of the aqueous or n-octanol phase was recorded and compared to the reference spectrum. Stock solutions were made in the aqueous phase, and distribution coefficients (DpH) were calculated by the following equation: [drawing 3]

MES-SA [4] = test: Cytotoxicity in double coculture, MES-SA mCherry; conditions: read-out: IC50 MES-SA; double coculture with MES-SA/Dx5; 144 h; without TQ
Experimental: (§6) Therefore, the novel half-sandwich complexes (1–4) and their corresponding ligands were tested against a coculture of MES-SA and MES-SA/Dx5 cells expressing the fluorescent proteins mCherry or eGFP, respectively.[62]
(§7) The tested compounds were dissolved in 50% (v/v) DMSO/PBS’ buffer to prepare 5–10 mM stock solutions, which were diluted in complete culture medium. Constitutive expression of the fluorescent proteins allowed multiplexing in cytotoxicity experiments.[62] […] Serial dilutions of the compounds were added 24 h after seeding. To address the effect of P-gp function, TQ was added at a nontoxic concentration (0.4 μM) 15 min before the test compounds. […] IC50 values and standard deviation were calculated from average pIC50 values from at least 3 independent measurements.

[5] = Ligand displacement with 2,2′-bipyridine, conditional formation constant; assay type: physicochemical; conditions: pH 7.4; bpy competitor; UV–vis
Excerpt: These pKa (H2O) values are lower than those of the complexes formed with the corresponding amino acid hybrids (HQCl-D-Pro, HQCl-D-hPro, Figure S23). Thus, the predominant complex at pH 7.4 is [M(arene)(HL)(H2O)]^2+ in all cases, in which the bidentate ligand coordinates via the (N,O^–) donor set and the pyridinium or pyrrolidinium nitrogens are protonated just like in the isolated complexes (Chart 3). Based on the unchanged spectra (vide supra), these types of complexes show no dissociation at pH = 2, indicating their high stability and hindering the direct determination of the formation constants. Therefore, a ligand displacement experiment was performed using UV–vis spectrophotometry with 2,2′-bipyridine (bpy) as a competitor to determine conditional formation constants at pH = 7.4 (Figure S25). […] Nevertheless, these values indicate a high stability of the complexes in solution, and <1% of dissociation is estimated at 1 μM concentration at pH = 7.4. The ligand displacement measurement could not be applied to the RuCym complexes due to the release of the p-cymene ring followed by the formation of the mixed ligand complex with bpy and oxidation of the metal center (Figure S26), similarly to analogue complexes.[14],[26],[27]

[6] = tested on: methicillin-resistant S. aureus (MRSA) ATCC 43300; test: Antibacterial MIC, MRSA; assay type: cell-based, Staphylococcus aureus; conditions: Mueller Hinton Broth, 37 °C, 18 h
Experimental: (§1) Escherichia coli (ATCC 25922) was used as Gram-negative strain and Staphylococcus aureus (ATCC 25923, methicillin-resistant (MRSA) ATCC 43300) strains were applied as Gram-positive bacterial cultures in the experiments. MIC values of the compounds were determined in 96-well plates based on the Clinical and Laboratory Standard Institute guidelines (CLSI guidelines).[76] The stock solutions of the compounds (same as those used for cytotoxicity experiments) were diluted in 100 μL of Mueller Hinton Broth. Then, 10^–4 dilution of an overnight bacterial culture in 100 μL of medium was added to each well, with the exception of the medium control wells.

[7] = tested on: Escherichia coli (ATCC 25922); test: Antibacterial MIC, E. coli; assay type: cell-based; conditions: Mueller Hinton Broth, 37 °C, 18 h
Experimental: as §1

[8] = target: human serum albumin (HSA), Trp214 / site I (Homo sapiens, UniProt P02768); test: HSA Trp214 fluorescence quenching; conditions: 1 μM HSA; λEX = 295 nm (Trp-214); pH 7.4 (PBS’); […]; 24 h
Experimental: as §4, §5

MES-SA/Dx5 [9] = test: Cytotoxicity in double coculture, MES-SA/Dx5 eGFP; conditions: for SR = IC50 (MES-SA)/IC50 (MES-SA/Dx5): double coculture; for IC50: read-out: IC50 MES-SA/Dx5, double coculture with MES-SA, 144 h
Experimental: as §6, §7

[10] = H2O/Cl– coligand exchange by UV–vis titration with chloride ions; assay type: physicochemical
Experimental: When the isolated complexes (1–4) are dissolved in water, their chlorido coligand can be replaced by water, or vice versa in the aqua complexes [M(arene)(HL)(H2O)]^2+, the H2O → Cl^– exchange process can take place in the presence of chloride ions. The chloride ion affinity of the complexes was also investigated by UV–vis spectrophotometry. RhCp* and RuCym complexes were titrated with chloride ions at pH 7.4 and 6.0, respectively. For this experiment, pH values were chosen at which the formation of the mixed hydroxido species is negligible. A representative spectrum series for complex (4) is shown in Figure S27, and the calculated conditional exchange constants (logK’ (H2O/Cl^–)) are given in Table 2 and in Figure S23. […] The complexes of the amino acid hybrids HQCl-D-Pro and HQCl-D-hPro have lower logK’ (H2O/Cl^–) constants most likely due to the repulsive effect of the nearby COO^– group.[26]

[11] = tested on: Staphylococcus aureus (ATCC 25923); test: Antibacterial MIC, S. aureus; assay type: cell-based; conditions: Mueller Hinton Broth, 37 °C, 18 h
Experimental: as §1

MES-SA/Dx5 [12] = test: Cytotoxicity in triple coculture, MES-SA/Dx5 eGFP; assay type: cell-based, human
Experimental: (§2) Cell lines were purchased from the American Type Culture Collection (ATCC). MES-SA/B1 is a human MDR1-transfected derivative of MES-SA, and MES-SA mCherry, MES-SA/B1 mOrange, and MES-SA/Dx5 eGFP were engineered to stably express the respective fluorescent proteins previously.[62] Cells were kept in culture medium (DMEM) supplemented with 10% fetal bovine serum, 2 mM L-glutamine, 100 units/mL penicillin, and 100 μg/mL streptomycin (Thermo Fisher). One week before use, MES-SA/Dx5 eGFP cells were treated with 0.5 μM doxorubicin to ensure ABCB1/P-gp expression.
(§3) The tested compounds were dissolved in 50% (v/v) DMSO/PBS’ buffer to prepare 5–10 mM stock solutions, which were diluted in complete culture medium. Constitutive expression of the fluorescent proteins allowed multiplexing in cytotoxicity experiments.[62] Cells were mixed before seeding in 384-well plates: in double cocultures, MES-SA mCherry and MES-SA/Dx5 eGFP cells were seeded at 1250–1250 cells/well (in total 2500 cells/well); while in triple cocultures, MES-SA mCherry, MES-SA/Dx5 eGFP and MES-SA/B1 mOrange cells were seeded at 800–800–800 cells/well (in total 2400 cells/well). Serial dilutions of the compounds were added 24 h after seeding. To address the effect of P-gp function, TQ was added at a nontoxic concentration (0.4 μM) 15 min before the test compounds. The intensity of the fluorescent proteins, which is proportional to cell mass, was measured after 144 h of incubation at the respective fluorescent channels (excitation/emission: eGFP: 485 nm/510 nm; mOrange: 545 nm/567 nm; mCherry: 585 nm/610 nm). pIC50 values were calculated by a custom program written by Judit Sessler in C#.[62] IC50 values and standard deviation were calculated from average pIC50 values from at least 3 independent measurements.

MES-SA/B1 = test: Cytotoxicity in triple coculture, MES-SA/B1 mOrange; assay type: cell-based, human
Experimental: as §2, §3

MES-SA [13] = test: Cytotoxicity in triple coculture, MES-SA mCherry; assay type: cell-based, human; conditions: Homo sapiens, MES-SA/B1, MES-SA/Dx5, 144 h
Experimental: as §2, §3

[14] = pKa of in situ prepared complexes by UV–vis titration; assay type: physicochemical; conditions: 1:1 system, absence of chloride, I = 0.20 M KNO3
Excerpt: The UV–vis spectra of the complexes prepared in situ were then followed at different pH values in the absence of chloride ions. No spectral changes were observed between pH = 2–6.3 (RuCym) or 7.5 (RhCp*), indicating high solution stability in both cases; however, the changes were significant in the basic pH range (Figure S22). In the case of RuCym complexes, two overlapping processes associated with the deprotonation of the coordinated water molecule and the noncoordinated Npyr/pipH^+ moiety were observed. […] The pKa values determined for these processes are shown in Table 2 and Figure S23 together with the values obtained for complexes formed with the amino acid hybrids HQCl-D-Pro and HQCl-D-hPro (Chart 2) for comparison.[26]
An Agilent Cary 8454 diode array spectrophotometer was utilized to obtain UV–vis spectra in the wavelength range 190–1100 nm. The path length (l) was 1 or 2 cm in most cases (the actual l is always indicated in the legends of the figures). The concentrations of the ligands and complexes were between 36 and 100 μM. The ligands were titrated in the presence of 10 equiv of EDTA. Individual samples contained 0–37 μM HSA, 0–206 μM MIM, 0–759 μM AHA, or 0–733 μM FHA. Spectra were always background and baseline corrected. The computer program HypSpec[64] was used to obtain stability constants.

Chain of human serum albumin (HSA), site II (P02768 25-609): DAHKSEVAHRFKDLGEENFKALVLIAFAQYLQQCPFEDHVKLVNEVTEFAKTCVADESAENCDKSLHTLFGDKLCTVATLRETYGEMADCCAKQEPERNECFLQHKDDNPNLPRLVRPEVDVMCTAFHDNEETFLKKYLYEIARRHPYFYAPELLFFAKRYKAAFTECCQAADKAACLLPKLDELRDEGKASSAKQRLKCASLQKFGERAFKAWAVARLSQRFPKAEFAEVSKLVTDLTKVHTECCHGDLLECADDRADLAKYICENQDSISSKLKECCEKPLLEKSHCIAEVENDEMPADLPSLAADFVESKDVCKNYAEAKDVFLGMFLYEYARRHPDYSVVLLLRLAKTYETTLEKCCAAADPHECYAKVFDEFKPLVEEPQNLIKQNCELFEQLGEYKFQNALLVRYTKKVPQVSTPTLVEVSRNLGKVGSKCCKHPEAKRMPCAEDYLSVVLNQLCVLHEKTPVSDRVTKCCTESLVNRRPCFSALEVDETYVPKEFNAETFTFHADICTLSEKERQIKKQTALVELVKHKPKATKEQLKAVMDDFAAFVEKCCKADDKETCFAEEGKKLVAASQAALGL
Chain of human serum albumin (HSA), Trp214 / site I (P02768 25-609): as above

Cc1c(C)c(C)[c-](C)c1C.[Cl-].[Cl-].[O-]c1c(C[NH+]2CCCC2)cc(Cl)c2cccnc12.[Rh+3] [(1), [RhCp*(HQCl-Pyr)Cl]Cl]
logK’(DG) [1]: 5.0 ± 0.1
pKa (H2O) [2]: 9.35 ± 0.03
pKa (Npyr/pipH+) [2]: 10.47 ± 0.03
logD7.4 ([3]; c(Cl–) = 4 mM): –0.11 ± 0.01
logD7.4 ([3]; c(Cl–) = 24 mM): +0.12 ± 0.01
logD7.4 ([3]; c(Cl–) = 100 mM): +0.22 ± 0.01
IC50 (MES-SA [4]): 2.97 µM
logK’ [M(arene)L]7.4 conditional formation constant [5]: 12.06 ± 0.02
MIC [6]: 50 µM
MIC [7]: 50 µM
logK’(quenching) [8]: 5.1 ± 0.1
SR = IC50 (MES-SA)/IC50 (MES-SA/Dx5) (MES-SA/Dx5 [9]; + 0.4 μM tariquidar (TQ)): 1.3
SR = IC50 (MES-SA)/IC50 (MES-SA/Dx5) (MES-SA/Dx5 [9]; without TQ): 16.0
IC50 (MES-SA/Dx5 [9]; without TQ): 0.19 µM
logK’ (H2O/Cl–) ([10]; RhCp* complexes titrated at pH 7.4): 2.23 ± 0.02
MIC [11]: 50 µM

COc1cc([C@@H]2c3cc4c(cc3[C@@H](O[C@@H]3O[C@@H]5CO[C@@H](C)O[C@H]5[C@H](O)[C@H]3O)[C@H]3COC(=O)[C@H]23)OCO4)cc(OC)c1O [etoposide]
SR Dx5 = IC50 (MES-SA)/IC50 (MES-SA/Dx5) (MES-SA/Dx5 [12]): 0.15
IC50 (MES-SA/Dx5 [12]; Homo sapiens, MES-SA/Dx5, 144 h): 1.7 µM
SR B1 = IC50 (MES-SA)/IC50 (MES-SA/B1) (MES-SA/B1): 0.22
IC50 (MES-SA [13]): 0.26 µM

[RuCym(HQCl-Pyr)Cl]Cl [(2)]
logK’(DG) [1]: 5.2 ± 0.1
pKa (H2O) [2]: 8.47 ± 0.04
pKa (Npyr/pipH+) [2]: 10.40 ± 0.03
logD7.4 ([3]; c(Cl–) = 4 mM): –0.12 ± 0.02
logD7.4 ([3]; c(Cl–) = 24 mM): +0.23 ± 0.03
logD7.4 ([3]; c(Cl–) = 100 mM): +0.46 ± 0.02
IC50 (MES-SA [4]): 8.97 µM
MIC [6]: > 100 µM
pKa (H2O) [14]: 8.42 ± 0.03
pKa (Npyr/pipH+) [14]: 10.32 ± 0.03
MIC [7]: > 100 µM
logK’(quenching) [8]: 5.3 ± 0.2
SR = IC50 (MES-SA)/IC50 (MES-SA/Dx5) (MES-SA/Dx5 [9]; + 0.4 μM tariquidar (TQ)): 0.1
SR = IC50 (MES-SA)/IC50 (MES-SA/Dx5) (MES-SA/Dx5 [9]; without TQ): 3.2
IC50 (MES-SA/Dx5 [9]; without TQ): 2.78 µM
logK’ (H2O/Cl–) ([10]; RuCym complexes titrated at pH 6.0): 1.60 ± 0.07
MIC [11]: > 100 µM
